Reference: patent publication US7807367B2, “Enzymatic fluorometric assay for cAMP and adenylate cyclase and kits therefor” (Fuso Pharmaceutical Industries, Ltd., priority 1999, dated 2010)

Tested on: ventricular myocytes
Assay: Micro cAMP measurement in tissue cultures with enzymatic fluorometric assay
Assay type: cell-based, rat
Conditions: isolated ventricular myocytes of 1 day-old rats, 2 μM IBMX, isoproterenol 1 μM final, 5 minutes, one-tenth of eluent, cAMP standard curve
Procedure: Isolated ventricular myocytes were obtained from hearts of 1 day-old rats, grown in primary cultures. There were approximately 5 million viable myocardial cells per heart. After plating at a density of approximately 1 million cells per 100 mm, dish cells were grown in minimum essential medium with Hanks balanced salt solution containing 5% bovine calf serum cells. Simpson et al., Cir. Res., 51, 787 (1982). On day 4, the medium was changed. The cultures contained >90% myocardial cells and cell numbers were constant over time. Simpson et al., Cir. Res., 51, 787 (1982); Rocha-Singh et al., J. Clin. Invest., 88, 204 (1991); and Rocha-Singh et al., J. Clin. Invest., 88, 706 (1991)
Six plates of myocytes were randomized into two groups (n=3 plates/group). […]
A volume of 125 μL of the Detecting Reaction Mixture prepared from (E) (100 mM Tris-HCl, pH 8.0; 3.2 mM EDTA; 0.6 mM NADP^+; 1 U/mL Phosphoglucose isomerase; 0.5 U/mL Glucose-6-phosphate dehydrogenase) was added to each assay tube from Cycling Reactions. After 20 minutes at room temperature, the final concentration of NADPH was measured using a fluorometer (Optical Technology Devises, Inc., NY). The fluorometer was set such that a reading of 10 fluorometric units was equivalent to 1 nmol of NADPH in 900 μL of buffer (50 mM Tris-HCl, pH 8.0). […]

CC(C)NCC(O)c1ccc(O)c(O)c1 (stereo not shown) [isoproterenol]
actual value of cAMP: 680 pmol/100 mm plate
